Measurements from patent US6114517A, “Methods of modulating tumor necrosis factor α-induced expression of cell adhesion molecules” (Isis Pharmaceuticals Inc., priority 1998, dated 2000).

Tests used:
Format in all cases: cell-based, human
[1] = tested on: E-selectin; assay: TNF-α-induced E-selectin cell surface expression in HMVEC, flow cytometry; conditions: for time of maximal inhibition of E-selectin induction: following antisense treatment
Description: (§1) Human dermal microvascular cells (HMVEC-d; Clonetics, San Diego, Calif.) were cultivated in endothelial basal media (EBM, Clonetics) supplemented with 10% fetal bovine serum (HyClone, Logan, Utah). Cells were grown in 100 mm petri dishes until 70-80% confluent, then washed with PBS and OPTI-MEM (Life Technologies, Inc., Gaithersburg, Md.). The cells were then incubated in the presence of OPTI-MEM and […] LIPOFECTIN (a 1:1 (w/w) liposome formulation of the cationic lipid N-[1-(2,3-dioleyloxy)propyl]-n,n,n-trimethylammonium chloride (DOTMA), and dioleoyl phosphotidylethanolamine (DOPE) in membrane filtered water (Life Technologies, Gaithersburg, Md.), per 100 nM of oligonucleotide followed by addition of oligonucleotide at the appropriate concentrations.
(§2) The effect of c-raf and Ha-ras antisense oligonucleotide treatment on the induction of E-selectin by TNF-α was examined. HMVEC cells were treated with either the c-raf or Ha-ras antisense compound under dose-response conditions or over time at a single dose level followed by stimulation of E-selectin expression by TNF-α for 5 hours. The cell surface expression of E-selectin was determined by flow cytometry analysis. Following oligonucleotide treatment, cells were detached from the plates and analyzed for surface expression of cell adhesion molecules using a Becton Dickinson (San Jose, Calif.) FACScan. TNF-α and FITC conjugated antibody for E-selectin were obtained from R & D Systems (Minneapolis, Minn.). PE-conjugated antibody for ICAM-1 was obtained from Pharmingen (San Diego, Calif.). VCAM-1 antibody was obtained from Santa Cruz Biotechnology, Santa Cruz, Calif. Cell surface expression was calculated using the mean value of fluorescence intensity using 3,000-5,000 cells stained with the appropriate antibody for each sample and time point. Results are expressed as percentage of control (cell surface expression induced by TNF-α in cells that were not treated with oligonucleotides) based upon mean fluorescence intensity.
The effects of c-raf, Ha-ras, and a E-selectin antisense oligonucleotide on TNF-α-induced E-selectin cell surface expression under kinetic conditions were examined. […] To test this, cells were treated, separately, with antisense oligonucleotides to E-selectin, ICAM-1 and VCAM-1 and allowed to recover prior to TNF-α treatment. […] E-selectin cell surface expression was measured by flow cytometry analysis after 5 hours of TNF-A treatment.

[2] = tested on: ICAM-1 mRNA; assay: TNF-α-induced ICAM-1 mRNA, Northern blot; conditions: 48 hrs recovery, TNF-α two to three hours before RNA analysis
Description: (§3) For determination of mRNA levels by Northern blot, total RNA was prepared from cells by the guanidinium isothiocyanate procedure or by the Qiagen RNAEASY method (Qiagen, Santa Clarita, Calif.) at the indicated times after initiation of oligonucleotide treatment. Northern blot analysis was performed as described in Current Protocols in Molecular Biology (Ausubel, F. M., et al., (eds), 1987, Greene Publishing Assoc. and Wiley Interscience, New York). A glyceraldehyde 3-phosphate dehydrogenase (G3PDH) probe was purchased from Clontech (Palo Alto, Calif., Catalog Number 9805-1). RNA was quantified and normalized to G3PDH mRNA levels using a Molecular Dynamic PHOSPHORIMAGER (Sunnyvale, Calif.).
(§4) Northern blot analysis was carried out to examine whether c-raf and Ha-ras antisense oligonucleotides inhibit the induction of cell adhesion molecules at the transcriptional level. Cells were treated with c-raf (ISIS 12854, SEQ ID NO. 2) or Ha-ras (ISIS 15168, SEQ ID NO. 4) antisense oligonucleotides and allowed to recover for 48 hrs. TNF-α was added two to three hours prior to RNA analysis and Northern blotting was performed with probes specific for E-selectin, ICAM-1, and VCAM-1. The probe for E-selectin was obtained by PCR amplification using primers directed to HUMELAM1A (Genbank Accession No. M24736; SEQ ID NO. 18).

[3] = tested on: VCAM-1 mRNA; assay: TNF-α-induced VCAM-1 mRNA, Northern blot; conditions: 48 hrs recovery, TNF-α two to three hours before RNA analysis
Description: as §3, §4

[4] = tested on: ICAM-1; assay: TNF-α-induced ICAM-1 cell surface expression in HMVEC, flow cytometry; conditions: for maximal inhibition of induction of ICAM-1 by TNF-α: dose response
Description: as §1
as §2, with “intensity. Basal expression of E-selectin and VCAM-1 is undetectable in the absence of TNF-α whereas a low level of basal expression is detectable for ICAM-1.” for “intensity.”
(§5) TNF-α induction of ICAM-1 and VCAM-1 in cells treated with c-raf and Ha-ras antisense oligonucleotides was also examined to further define the roles of c-raf and Ha-ras in cytokine signaling. Oligonucleotides were tested, using flow cytometry analysis, as described in Example 4. Results are shown in Table 6 (ICAM-1) and Table 7 (VCAM-1).

[5] = tested on: E-selectin mRNA; assay: TNF-α-induced E-selectin mRNA, Northern blot; conditions: 48 hrs recovery, TNF-α two to three hours before RNA analysis
Description: as §3, §4

[6] = tested on: VCAM-1; assay: TNF-α-induced VCAM-1 cell surface expression in HMVEC, flow cytometry; conditions: for Maximum inhibition of induction of VCAM-1 by TNF-α: dose response
Description: as §1
as §2, with “intensity. Basal expression of E-selectin and VCAM-1 is undetectable in the absence of TNF-α whereas a low level of basal expression is detectable for ICAM-1.” for “intensity.”
as §5

[7] = 25 nM, TNF-α for 5 hours, % of control
[8] = 75 nM, TNF-α for 5 hours, % of control
[9] = 150 nM, TNF-α for 5 hours, % of control
[10] = time course, 12 h/20 h after oligonucleotide treatment, TNF-α 5 hours
[11] = time course, 48 h after oligonucleotide treatment, TNF-α 5 hours
[12] = time course, 72 h after oligonucleotide treatment, TNF-α 5 hours

## ToCoCsGsTsCsAsTsCsGsCsTsCoCoToCoAoGoGoG [ISIS 15168]
[1]; 25 nM, TNF-α for 5 hours
  % Cell Surface Inhibition (E-selectin): 28%
[1]; [7]
  % Cell Surface Expression (E-selectin): 72%
[1]; 75 nM, TNF-α for 5 hours
  % Cell Surface Inhibition (E-selectin): 53%
[1]; [8]
  % Cell Surface Expression (E-selectin): 47%
[1]; 150 nM, TNF-α for 5 hours
  % Cell Surface Inhibition (E-selectin): 59%
[1]; [9]
  % Cell Surface Expression (E-selectin): 41%
[1]; dose response, HMVEC
  Maximal inhibition of E-selectin induction: ~60%
[1]
  time of maximal inhibition of E-selectin induction: 48 h
[1]; [10]
  % Cell Surface Expression (E-selectin): 87%
  % Cell Surface Inhibition (E-selectin): 13%
[1]; [11]
  % Cell Surface Expression (E-selectin): 42%
  % Cell Surface Inhibition (E-selectin): 58%
[1]; [12]
  % Cell Surface Expression (E-selectin): 42%
  % Cell Surface Inhibition (E-selectin): 58%
[2]
  % mRNA Expression (ICAM-1): 73%
  % mRNA Inhibition (ICAM-1): 27%
[3]
  % mRNA Expression (VCAM-1): 29%
  % mRNA Inhibition (VCAM-1): 71%
[4]; 20 nM
  % Cell Surface Expression (ICAM-1): 81%
  % Cell Surface Inhibition (ICAM-1): 19%
[4]; 50 nM
  % Cell Surface Expression (ICAM-1): 62%
  % Cell Surface Inhibition (ICAM-1): 38%
[4]; 100 nM
  % Cell Surface Expression (ICAM-1): 54%
  % Cell Surface Inhibition (ICAM-1): 46%
[4]
  maximal inhibition of induction of ICAM-1 by TNF-α: greater than 40%
[5]
  % mRNA Expression (E-selectin): 13%
  % mRNA Inhibition (E-selectin): 87%
[6]; 20 nM
  % Cell Surface Expression (VCAM-1): 70%
  % Cell Surface Inhibition (VCAM-1): 30%
[6]; 50 nM
  % Cell Surface Expression (VCAM-1): 51%
  % Cell Surface Inhibition (VCAM-1): 49%
[6]; 100 nM
  % Cell Surface Expression (VCAM-1): 44%
  % Cell Surface Inhibition (VCAM-1): 56%
[6]
  Maximum inhibition of induction of VCAM-1 by TNF-α: greater than 50%

## ToCoCoCoGoCsCsTsGsTsGsAsCsAsToGoCoAoToT [ISIS 12854]
[1]; 25 nM, TNF-α for 5 hours
  % Cell Surface Inhibition (E-selectin): 63%
[1]; [7]
  % Cell Surface Expression (E-selectin): 37%
[1]; 75 nM, TNF-α for 5 hours
  % Cell Surface Inhibition (E-selectin): 74%
[1]; [8]
  % Cell Surface Expression (E-selectin): 26%
[1]; 150 nM, TNF-α for 5 hours
  % Cell Surface Inhibition (E-selectin): 77%
[1]; [9]
  % Cell Surface Expression (E-selectin): 23%
[1]; dose response, HMVEC
  Maximal inhibition of E-selectin induction: approximately 80%
[1]
  time of maximal inhibition of E-selectin induction: 48 h
[1]; [10]
  % Cell Surface Expression (E-selectin): 58%
  % Cell Surface Inhibition (E-selectin): 42%
[1]; [11]
  % Cell Surface Expression (E-selectin): 23%
  % Cell Surface Inhibition (E-selectin): 77%
[1]; [12]
  % Cell Surface Expression (E-selectin): 24%
  % Cell Surface Inhibition (E-selectin): 76%
[2]
  % mRNA Expression (ICAM-1): 78%
  % mRNA Inhibition (ICAM-1): 22%
[3]
  % mRNA Expression (VCAM-1): 35%
  % mRNA Inhibition (VCAM-1): 65%
[4]; 20 nM
  % Cell Surface Expression (ICAM-1): 80%
  % Cell Surface Inhibition (ICAM-1): 20%
[4]; 50 nM
  % Cell Surface Expression (ICAM-1): 62%
  % Cell Surface Inhibition (ICAM-1): 38%
[4]; 100 nM
  % Cell Surface Expression (ICAM-1): 57%
  % Cell Surface Inhibition (ICAM-1): 43%
[4]
  maximal inhibition of induction of ICAM-1 by TNF-α: greater than 40%
[5]
  % mRNA Expression (E-selectin): 22%
  % mRNA Inhibition (E-selectin): 78%
[6]; 20 nM
  % Cell Surface Expression (VCAM-1): 46%
  % Cell Surface Inhibition (VCAM-1): 54%
[6]; 50 nM
  % Cell Surface Expression (VCAM-1): 37%
  % Cell Surface Inhibition (VCAM-1): 63%
[6]; 100 nM
  % Cell Surface Expression (VCAM-1): 28%
  % Cell Surface Inhibition (VCAM-1): 72%
[6]
  Maximum inhibition of induction of VCAM-1 by TNF-α: greater than 70%

## ToCoAsGsTsAsAsTsAsGsCsCsCoCoAoCoAoToGoG [ISIS 17552, reference compound]
[1]; [7]
  % Cell Surface Expression (E-selectin): 134%
[1]; [8]
  % Cell Surface Expression (E-selectin): 116%
[1]; [9]
  % Cell Surface Expression (E-selectin): 116%
[1]; dose response, HMVEC
  effect on E-selectin induction: little to no effect
[1]; [10]
  % Cell Surface Expression (E-selectin): 113%
[1]; [11]
  % Cell Surface Expression (E-selectin): 116%
[1]; [12]
  % Cell Surface Expression (E-selectin): 111%
[2]
  % mRNA Expression (ICAM-1): 101%
[3]
  % mRNA Expression (VCAM-1): 111%
[4]; 20 nM
  % Cell Surface Expression (ICAM-1): 102%
[4]; 50 nM
  % Cell Surface Expression (ICAM-1): 100%
[4]; 100 nM
  % Cell Surface Expression (ICAM-1): 98%
  % Cell Surface Inhibition (ICAM-1): 2%
[5]
  % mRNA Expression (E-selectin): 92%
  % mRNA Inhibition (E-selectin): 8%
[6]; 20 nM
  % Cell Surface Expression (VCAM-1): 111%
[6]; 50 nM
  % Cell Surface Expression (VCAM-1): 97%
  % Cell Surface Inhibition (VCAM-1): 3%
[6]; 100 nM
  % Cell Surface Expression (VCAM-1): 85%
  % Cell Surface Inhibition (VCAM-1): 15%
